From patent US10294202B2, “Pyrrolidinones as herbicides” (FMC Corporation, priority 2013, dated 2019)

Legend:
galium = assay: Test C pre-/postemergence herbicide test; format: in vivo, Galium aparine; settings: Preemergence
In short: (§1)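 Pre-emergence: seeds sown in loam/sand blend and treated with compound in surfactant-containing solvent. Post-emergence: plants at 2–18 cm (1- to 4-leaf stage) in peat-based medium sprayed with the same formulation. Visual rating versus controls after 13–15 days in greenhouse, scale 0 (no effect) to 100 (complete control).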

oat, wild = assay: Test C pre-/postemergence herbicide test; format: in vivo, Avena fatua; settings: Postemergence
In short: as §1

crabgrass, large = assay: Test C pre-/postemergence herbicide test; format: in vivo, Digitaria sanguinalis
In short: as §1

foxtail, giant = assay: Test C pre-/postemergence herbicide test; format: in vivo, Setaria faberii
In short: as §1

barnyardgrass [1] = assay: Test A pre-/postemergence herbicide test; format: in vivo, Echinochloa crus-galli
In short: (§2)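 Seeds in loam–sand blend received preemergence directed soil spray; separately, plants 2–10 cm at one- to two-leaf stage received postemergence spray, both with test chemicals in non-phytotoxic solvent with surfactant. After ~10 days in greenhouse, injury rated visually against untreated controls, 0 (no effect) to 100 (complete control).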

pigweed = assay: Test A pre-/postemergence herbicide test; format: in vivo, Amaranthus retroflexus
In short: as §2

velvetleaf = assay: Test C pre-/postemergence herbicide test; format: in vivo, Abutilon theophrasti
In short: as §1

lambsquarters = assay: Test C pre-/postemergence herbicide test; format: in vivo, Chenopodium album
In short: as §1

waterhemp = assay: Test C pre-/postemergence herbicide test; format: in vivo, Amaranthus rudis
In short: as §1

barnyardgrass [2] = assay: Test C pre-/postemergence herbicide test; format: in vivo, Echinochloa crus-galli
In short: as §1

giant foxtail = assay: Test A pre-/postemergence herbicide test; format: in vivo, Setaria faberii
In short: as §2

morningglory = assay: Test C pre-/postemergence herbicide test; format: in vivo, Ipomoea coccinea
In short: as §1

[3] = Postemergence, 31 g ai/ha, scale 0 to 100 (0 no effect, 100 complete control)
[4] = Postemergence, 62 g ai/ha, scale 0 (no effect) to 100 (complete control)
[5] = Postemergence, 125 g ai/ha, scale 0 to 100 (0 no effect, 100 complete control)
[6] = Postemergence, 250 g ai/ha, scale 0 to 100 (0 no effect, 100 complete control)
[7] = Preemergence, 31 g ai/ha, scale 0 to 100, 0 is no effect and 100 is complete control
[8] = Preemergence, 62 g ai/ha, scale 0 to 100 (0 no effect, 100 complete control)
[9] = Preemergence, 125 g ai/ha, scale 0 to 100
[10] = Postemergence, 125 g ai/ha, visual rating on 0 to 100 scale (0 no effect, 100 complete control), approx. 10 days
[11] = Postemergence, 500 g ai/ha, 0 to 100 scale (0 no effect, 100 complete control)
[12] = Preemergence, 125 g ai/ha, 0 to 100 scale where 0 is no effect and 100 is complete control
[13] = Preemergence, 500 g ai/ha, visual rating on 0 to 100 scale (0 no effect, 100 complete control)

With `O=C1NCC(c2cccc(OC(F)F)c2)C1C(=O)Nc1ccc(F)c(F)c1F` (stereo not drawn) [Compound 325] the “Galium plant response rating” value (galium; 31 g ai/ha, scale 0 to 100, 0 is no effect and 100 is complete control) was 0, the “Galium plant response rating” value (galium; 62 g ai/ha, scale 0 to 100 (0 no effect, 100 complete control)) was 20 and the “Plant response rating, Galium” value (galium; 125 g ai/ha, scale 0 to 100) was 50. For the same compound, the “Plant response rating (scale of 0 to 100), Galium” value (galium; 250 g ai/ha) was 80, the “Plant response rating, Oat, Wild” value (oat, wild; 31 g ai/ha, scale 0 to 100 (0 no effect, 100 complete control)) was 0 and the “Plant response rating, Oat, Wild” value (oat, wild; 62 g ai/ha, scale 0 (no effect) to 100 (complete control)) was 0. For the same compound, the “Plant response rating, Oat, Wild” value (oat, wild; 125 g ai/ha, scale 0 to 100 (0 no effect, 100 complete control)) was 5, the “Plant response rating, Oat, Wild” value (oat, wild; 250 g ai/ha, scale 0 to 100 (0 no effect, 100 complete control)) was 15 and the “Plant response rating, Crabgrass, Large” value (crabgrass, large; [3]) was 55. For the same compound, the “Plant response rating, Crabgrass, Large” value (crabgrass, large; [4]) was 65, the “Plant response rating, Crabgrass, Large” value (crabgrass, large; [5]) was 65 and the “Plant response rating, Crabgrass, Large” value (crabgrass, large; [6]) was 85. The “Crabgrass, Large plant response rating” value (crabgrass, large; [7]) was 95, the “Crabgrass, Large plant response rating” value (crabgrass, large; [8]) was 95 and the “Plant response rating, Crabgrass, Large” value (crabgrass, large; [9]) was 95. For the same compound, the “Plant response rating (scale of 0 to 100), Crabgrass, Large” value (crabgrass, large; Preemergence, 250 g ai/ha) was 100, the “Plant response rating, Foxtail, Giant” value (foxtail, giant; [3]) was 0 and the “Plant response rating, Foxtail, Giant” value (foxtail, giant; [4]) was 35. The “Plant response rating, Foxtail, Giant” value (foxtail, giant; [5]) was 65, the “Plant response rating, Foxtail, Giant” value (foxtail, giant; [6]) was 75 and the “Foxtail, Giant plant response rating” value (foxtail, giant; [7]) was 90. The “Foxtail, Giant plant response rating” value (foxtail, giant; [8]) was 95, the “Plant response rating, Foxtail, Giant” value (foxtail, giant; [9]) was 98 and the “Plant response rating (scale of 0 to 100), Foxtail, Giant” value (foxtail, giant; Preemergence, 250 g ai/ha) was 95. The “Plant response rating, Barnyardgrass” value (barnyardgrass [1]; [10]) was 90, the “Plant response rating, Barnyardgrass” value (barnyardgrass [1]; [11]) was 90 and the “Plant response rating, Barnyardgrass” value (barnyardgrass [1]; [12]) was 90. The “Barnyardgrass plant response rating” value (barnyardgrass [1]; [13]) was 90, the “Plant response rating, Pigweed” value (pigweed; [10]) was 40 and the “Plant response rating, Pigweed” value (pigweed; [11]) was 50. The “Plant response rating, Pigweed” value (pigweed; [12]) was 30, the “Pigweed plant response rating” value (pigweed; [13]) was 60 and the “Plant response rating, Velvetleaf” value (velvetleaf; [3]) was 0. The “Plant response rating, Velvetleaf” value (velvetleaf; [4]) was 15, the “Plant response rating, Velvetleaf” value (velvetleaf; [5]) was 20 and the “Plant response rating, Velvetleaf” value (velvetleaf; [6]) was 40. The “Velvetleaf plant response rating” value (velvetleaf; [8]) was 35, the “Plant response rating, Velvetleaf” value (velvetleaf; [9]) was 55 and the “Plant response rating, Lambsquarters” value (lambsquarters; [3]) was 20. The “Plant response rating, Lambsquarters” value (lambsquarters; [4]) was 45, the “Plant response rating, Lambsquarters” value (lambsquarters; [5]) was 70 and the “Plant response rating, Lambsquarters” value (lambsquarters; [6]) was 65. The “Lambsquarters plant response rating” value (lambsquarters; [7]) was 45, the “Lambsquarters plant response rating” value (lambsquarters; [8]) was 70 and the “Plant response rating, Lambsquarters” value (lambsquarters; [9]) was 80. For the same compound, the “Plant response rating (scale of 0 to 100), Lambsquarters” value (lambsquarters; Preemergence, 250 g ai/ha) was 80, the “Plant response rating, Waterhemp” value (waterhemp; [3]) was 0 and the “Plant response rating, Waterhemp” value (waterhemp; [4]) was 0. For the same compound, the “Plant response rating, Waterhemp” value (waterhemp; [5]) was 25, the “Plant response rating, Waterhemp” value (waterhemp; [6]) was 35 and the “Waterhemp plant response rating” value (waterhemp; [8]) was 75. The “Plant response rating, Waterhemp” value (waterhemp; [9]) was 80, the “Plant response rating, Barnyardgrass” value (barnyardgrass [2]; [3]) was 10 and the “Plant response rating, Barnyardgrass” value (barnyardgrass [2]; [4]) was 25. For the same compound, the “Plant response rating, Barnyardgrass” value (barnyardgrass [2]; [5]) was 70, the “Plant response rating, Barnyardgrass” value (barnyardgrass [2]; [6]) was 80 and the “Barnyardgrass plant response rating” value (barnyardgrass [2]; [7]) was 85. For the same compound, the “Barnyardgrass plant response rating” value (barnyardgrass [2]; [8]) was 90, the “Plant response rating, Barnyardgrass” value (barnyardgrass [2]; Preemergence, 125 g ai/ha, scale 0 to 100 (0 no effect, 100 complete control)) was 95 and the “Plant response rating (scale of 0 to 100; 0 is no effect, 100 is complete control), Barnyardgrass” value (barnyardgrass [2]; Preemergence, 250 g ai/ha) was 95. The “Plant response rating, Foxtail, Giant” value (giant foxtail; [10]) was 90, the “Plant response rating, Foxtail, Giant” value (giant foxtail; [11]) was 90 and the “Plant response rating, Foxtail, Giant” value (giant foxtail; [12]) was 90. The “Foxtail, Giant plant response rating” value (giant foxtail; [13]) was 90, the “Plant response rating, Morningglory” value (morningglory; [3]) was 5 and the “Plant response rating, Morningglory” value (morningglory; [4]) was 5. For the same compound, the “Plant response rating, Morningglory” value (morningglory; [5]) was 35, the “Plant response rating, Morningglory” value (morningglory; [6]) was 50 and the “Morningglory plant response rating” value (morningglory; [7]) was 0. The “Morningglory plant response rating” value (morningglory; [8]) was 30, the “Plant response rating, Morningglory” value (morningglory; [9]) was 30 and the “Plant response rating (scale of 0 to 100), Morningglory” value (morningglory; Preemergence, 250 g ai/ha) was 40.
